# Read-outs that look alike come from different tables or passages of the source.
# Experiments:
# metastatic ccRCC [1] = test: Combination of SUVEGIL and TORAVA trials (sunitinib): survival versus plasmatic CXCL7; type: in vivo, human; details: both cohorts combined
# Experimental: (§1) All patients gave written informed consent. The SUVEGIL trial (NCT00943839) was a multicenter prospective single-arm study. […] Patient characteristics and results have been previously described (Negrier et al., 2011).
# (§2) The CXCL5 and CXCL7 cut-off points (respectively 0.1 and 250 ng/ml) for PFS and OS were determined using smoothing spline curves analysis (R software, version 3.2.2). […] The predictive cut-off points determined in the SUVEGIL cohort were used for the TORAVA cohort.
# metastatic ccRCC [2] = tested on: metastatic ccRCC
# Experimental: Eligible patients were at least 18 years of age and had metastatic ccRCC histologically confirmed, with the presence of measurable disease according to Response Evaluation Criteria in Solid Tumors (RECIST) v1.1.
# The primary end point of the study was to evaluate the correlation between plasmatic levels of CXCL5 and CXCL7 and the overall response rate (ORR). The response was evaluated by investigators' assessment.
# The secondary end points were to evaluate the correlation between plasmatic levels of CXCL5 and/or CXCL7 and overall survival (OS) and progression-free survival (PFS), censored at last follow-up for those still alive or who have not progressed.
# Blood samples were centrifuged and the plasmas were collected and conserved at −80° C. Plasmatic levels of CXCL5 and CXCL7 were determined by ELISA using R&D (reference DY254) and Peprotech kits (reference 900-K40) respectively. Pure plasma or a 1/5 dilution was used for CXCL5 detection and a 1/100 dilution was used to detect CXCL7.
# Spearman's correlation was performed between best response rate and quantitative level of chemokine. The CXCL5 and CXCL7 cut-off points (respectively 0.1 and 250 ng/ml) for PFS and OS were determined using smoothing spline curves analysis (R software, version 3.2.2). Kaplan Meier method was used to produce survival curves and analyses of censored data were performed using Cox models. The predictive cut-off points determined in the SUVEGIL cohort were used for the TORAVA cohort.
# metastatic ccRCC [3] = test: TORAVA trial (retrospective validation cohort): survival versus plasmatic CXCL5/CXCL7; type: in vivo, human; details: patients with CXCL7 plasma levels below 250 ng/ml
# Experimental: as §1, §2
# [4] = CXCL7 plasma levels below 250 ng/ml
smiles,measurement,setting,value
CCN(CC)CCNC(=O)c1c(C)[nH]c(/C=C2\C(=O)Nc3ccc(F)cc32)c1C [sunitinib],OS,"metastatic ccRCC [1]; CXCL7 plasma levels above 250 ng/ml, p=0.00025",34.4 months
same,OS,metastatic ccRCC [1]; [4],20.7 months
same,median PFS,metastatic ccRCC [1]; [4],8.3 months
same,median PFS,"metastatic ccRCC [2]; SUVEGIL prospective cohort, all patients",20.1 months
same,median PFS,metastatic ccRCC [2]; patients with CXCL5 plasma levels below 0.1 ng/ml,14.9 months
same,median OS,metastatic ccRCC [2]; patients with CXCL7 plasma levels below 250 ng/ml,20.5 months
same,PFS,metastatic ccRCC [2]; patients with CXCL7 plasma levels below 250 ng/ml at diagnosis,15.1 months
same,median OS,"metastatic ccRCC [2]; patients with CXCL7 plasmatic levels above 250 ng/ml, p=0.001",34.4 months
same,PFS,metastatic ccRCC [3],8.6 months
